Measured values from patent US12630550B2, “Pharmacophore for trail induction” (THE SCRIPPS RESEARCH INSTITUTE, priority 2014, dated 2026).

System: TRAIL mRNA expression
Settings: RAW 264.7; doses as high as 10 μM or prolonged exposure
Procedure: RAW 264.7 cells (ATCC TIB-71) were maintained in growth medium of Dulbecco's Modified Eagle's Medium (DMEM with 4.5 g/L glucose and pyruvate, Gibco BRL, Invitrogen Corp., USA) supplemented with L-glutamine, penicillin/streptomycin, non-essential amino acids (100× stocks, Invitrogen Corp.), 10 mM HEPES, pH 7.4 (1 M stock, Invitrogen), and 10% Fetal Bovine Serum (FBS, Hyclone); (V. V. Kravchenko, R. J. Ulevitch, G. F. Kaufmann, Methods Mol. Biol. 2011, 692, 133-145).
Cells were plated in 6-well plates (Corning Costar 3506) diluted 1:5 in 3 mL growth medium, media was changed after cells had adhered. After 12 h incubation, cells were treated with described concentration of compound in DMSO, and incubated in the presence of that compound or vehicle for the described amount of time. At this time, media was removed and cells were treated with TRIzol reagent (Life Technologies), and RNA extracted via included protocol. RNA concentration determined using a Hitachi U-2000 UV-Vis Spectrophotometer and samples diluted to 12 μg/5 μL in H2O. […]

Cc1ccccc1CN1C2=NCCN2C(=O)C2=C1CCN(Cc1ccccc1)C2 [Compound 1, 7-Benzyl-10-(2-methylbenzyl)-2,6,7,8,9,10-hexahydroimidazo[1,2-a]pyrido[4,3-d]pyrimidin-5(3H)-one, reference compound]
change in TRAIL mRNA expression over controls: No change in TRAIL mRNA expression over controls
